Values quoted from earlier work in patent publication US20060216365A1, “Aromatherapeutic environmental system” (priority 2000, published 2006).

Key:
[1] = mice, literature (Hikino et al 1980)
[2] = mice, literature (Hikino et al 1980); remark: listed apart in the source
monoamine oxidase = details: literature (Truitt 1967)

Row | Compound | prolongation of hexobarbital-induced sleep / enhancement of hexobarbital anesthesis [1] | inhibition of stress-induced ulcer formation [2] | monoamine oxidase inhibiting activity (monoamine oxidase)
1 | CC(=O)O[C@H]1C[C@@H]2C[C@H]3[C@@H]([C@H](OC(C)=O)C[C@H]3C)[C@]1(C)OC2(C)C [Kessyl glycol diacetate] | active principles | no inhibitory action | 
2 | C=CCc1cc(OC)c2c(c1)OCO2 [myristicin] |  |  | mild degree
3 | Kessyl glycol 2-acetate | active principles |  | 
4 | Kessyl glycol 8-acetate | active principles |  | 
